Results reported in patent publication US20120071493A1, “SUBSTITUTED 8-SULFONYL-2,3,4,5-TETRAHYDRO-1H-GAMMA-CARBOLINES, LIGANDS AND PHARMACEUTICAL COMPOSITION; METHOD FOR THE PRODUCTION AND USE OF SAME” (priority 2009, published 2012).

Assays:
[1] = system: animals as in example 18.1.1; test: Passive avoidance, memory disturbed by MK-801; format: in vivo, mice; settings: 0.2 mg/kg and 1 mg/kg intraperitoneally before training; MK-801 0.1 mg/kg
[2] = system: male mice of BALB/c line; test: Passive Avoidance of mice in the Shuttle Chamber, memory disturbed by Scopolamine; format: in vivo; settings: 0.2 mg/kg, 30 minutes before training; retention after 24 hours
Experimental: 18.1.1. […] Experiments were carried out in aged male mice of BALB/c line weighing 20-25 grams or male rats of Vistar line weighing 200-250 g. A shuttle chamber (Ugo Basile, Italy) consisted of two sections was used. […] The sections were connected through a hole which could be overlapped by vertical door. The floor of the dark section was made of transverse metal bars on which DC current impulses could be fed. On the first day of experiment 30 minutes before training mice were injected […] with Scopolamine which causes memory disturbance. The animals of trial group were additionally injected with a compound of the general formula 1, for example, compound 1.1.1(4).HCl or 1.2.1(3).HCl, in doses of 0.2 mg/kg. The animals of control group were injected with physiological solution. Each group consisted of 8 animals. The animals were placed in the light section, and latent period of the first entry into the dark chamber was registered. Then the vertical door was closed and the animal was punished by 0.6 mA DC current for 3 seconds. After that the animal was taken back to its home cage. In 24 hours the same animal was placed again in the light section of the shuttle chamber and latent period of its first entry into the dark section, the total time of its stay in the light section and the number of entries into dark section was registered. Each monitoring lasted for 5 minutes. […]

[3] = system: mice; test: Porsolt's Forced Swim Test; format: in vivo; settings: injected for 4 days in doses of 1 mg/kg; 15 minutes test
Experimental: Mice Behavior in Porsolt's Forced Swim Test. The test apparatus represented a plastic vessel filled with water up to height of 18 cm at 20-22° C. Mice were placed in water and for 15 minutes the duration of immobile hanging in water-so called behavioural […], which is considered to be a measure of depressively-like state, was registered. Automated computerized detection of motion with videosystem and Any-maze programm were used in test. […] This testifies the decreasing of time of a depressively-like state.

[4] = system: mice; test: Tail suspension test; format: in vivo; settings: injected for 4 days in doses of 0.05 mg/kg; 6 minutes test
Experimental: Mice behavior in tail suspension test. Mice were suspended by tail with scotch tape on holder over horizontal surface at a height of about 40 cm, and for 6 minutes the total duration of complete immobility episodes which is considered to be a measure of depressively-like state was registered. Automated computerized detection of motion with videosystem and Any-maze programm were used in test. […] This testifies the decreasing of time of a depressively-like state.

[5] = system: mice; test: Mice Training in the Morris Water maze, Scopolamine memory impairment; format: in vivo; settings: intraperitoneally 35-40 minutes before training, with Scopolamine
Experimental: Mice Training in the Morris Water maze. A round pool filled with water at 20-22° C. was used. There was a round ceramic platform of 14 cm height in the pool. Animals's (mice) behavior was registered with an automated computer video system in combination with software package of movement analysis Any-maze (Stoelting Co., CIIIA). Selection of mice suitable for training was carried out before the experiments. For this purpose the platform was placed 1 cm above the water level and an animal was put on the platform for 20 seconds. Then the mouse was sunk into the water on the opposite side of the pool, allowed to find the platform and climb it for 60 seconds, where it was left for 20 seconds. After that the mouse was repeatedly immersed into water on the opposite side of the pool and allowed to find the platform. If it failed in finding the platform within 60 seconds the experimentator helped it to find the platform and climb it. If the mice couldn't find the platform itself in two consecutive attempts it was excluded from the experiment. During the next two days the platform was placed 0.5 cm lower the water level. Every day the mice were given four attempts for finding the platform within 60 seconds. The time interval between the attempts was 20 seconds, during which the mice stayed on the platform. Every day before the first attempt the mice was placed on the platform for 20 seconds. […]

[6] = system: 31 receptors (alpha-adrenoceptors, dopamine, histamine, imidazoline, sigma, norepinephrine and serotonin receptors); test: Displacement of radio-labelled ligands from 31 receptors (MDS Pharma Services); format: binding
Experimental: The interaction was estimated by the displacement of radio-labeled […] from their complex with the corresponding receptors by compound 1.1.1(4).HCl at its concentration of 10 mkM. […] The interaction was estimated by the displacement of radio-labeled […] from their complex with the corresponding receptors by compound 1.2.1(3).HCl at its concentration of 1 mkM. […] All radio-labelled experiments were carried out by MDS Pharma Services firm ([…].com/Services, Taipei, Taiwan) according to their protocols. Estimation of the results obtained is indicative of wide range of pharmacological activity of γ-carbolines of the general formula 1 towards alpha-adrenoceptors, dopamine receptors, histamine receptors, imidazoline receptors, sigma receptors, norepinephrine receptors and serotonin receptors.

[7] = system: male mice of SHK line; test: Novel Object Recognition test, Scopolamine-disturbed recognition; format: in vivo; settings: 0.05 mg/kg and 0.2 mg/kg intraperitoneally 30 minutes before training; Scopolamine 1 mg/kg
Experimental: The test was carried out in aged male mice of SHK line. Plexiglass plus maze, consisted of 4 dead-end chambers (numbered 1, 2, 3, 4), joined together through the fifth central chamber, was used in experiments. Mouse was placed into central chamber and allowed to explore the maze. Floor was cleaned after each animal. The sequence of chamber entries and duration of visits were registered by observer. Test was ended after 13 entries into dead-end chambers. Criterion for entry was location of all animal's paws inside the chamber at the same time.
During the training an animal was placed in the maze with one equiform bowl in each side chamber. In the course of testing (one hour after training) two opposite standing bowls were replaced by identical flasks, and animal was allowed to explore the maze. The time spent by animal in each side chamber was registered during the periods of training and testing. Index of novel object recognition was calculated as ratio of time spent by animal in side chambers with novel objects to the total time spent by it in all side chambers. In comparison with the training phase the appearance of novel object extends the time spent by animal in the chamber with novel object (so-called effect of novel object recognition). The recognition of novel objects was disturbed under action of Scopolamine administered in 1 mg/kg dose intraperitoneally 30 minutes before training, and recognition index was decreased.

% of radio-labelled ligands displacement ([6]; at 13 of 31 receptors, compound at 10 mkM, FIG. 1) [%] | number of receptors the compound actively interacts with (displacement >60%) ([6]; of 31 receptors, compound at 10 mkM, FIG. 1) | interaction with 31 receptors (displacement of radio-labelled ligands) ([6]; FIG. 2, compound at 1 mkM per figure legend) | Compound | effect on amnesia caused by MK-801, passive avoidance [1] | effect on amnesia caused by Scopolamine, passive avoidance [2] | duration of immobile hanging of mice in water [3] | duration of mice complete immobility [4] | effect on memory impairment caused by Scopolamine, Morris water maze [5] | prevention of Scopolamine influence on novel object recognition [7]
> 60 | 13 |  | CN1CCc2c(c3cc(S(=O)(=O)c4ccccc4)ccc3n2C)C1.Cl [1.1.1(4)•HCl, 2,5-dimethyl-8-(phenylsulfonyl)-2,3,4,5-tetrahydro-1H-γ-carboline hydrochloride] | decrease amnesia caused by MK-801 markedly | decrease amnesia | decreased almost thrice | decreased significantly | decreasing of memory impairment | could be prevented
 |  | Analogous results | CN1CCc2[nH]c3ccc(S(=O)(=O)Nc4cccc(F)c4)cc3c2C1.Cl [1.2.1(3)•HCl, 2-methyl-2,3,4,5-tetrahydro-1H-γ-carboline-8-sulfonic acid 3-fluorophenyl amide hydrochloride] | analogous effect | decrease amnesia | decreased almost thrice | decreased significantly | decreasing of memory impairment | could be prevented
